Source: the supplement of paper PMC6045584

Tests used:
Assay in all cases: area under dose-response curve of surviving fraction (unscaled, Aref=0) (surviving fraction x log10(nM)); higher = more resistant
Conditions in all cases: exposure time: 5 days; dose range 0.5-1000 nM
[1] = compound: CCc1cc(Nc2nccc(-c3c(-c4ccc(OC)c(C(=O)Nc5c(F)cccc5F)c4)nc4ccccn34)n2)c(OC)cc1N1CCC(N2CCN(S(C)(=O)=O)CC2)CC1
Outline: (§1)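 Tumour cell lines in 384-well plates were exposed for five days to eight inhibitor concentrations from 0.5 to 1000 nM. Viability was read by CellTiter-Glo luminescence, normalised to DMSO-only wells, in three screens per line. Dose-response survival curves were fitted to surviving fractions by 3-parameter logistic regression in the drc R package. Area under the curve is the unscaled activity area (Aref = 0) over log10 dose.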

LENVATINIB = compound: COc1cc2nccc(Oc3ccc(NC(=O)NC4CC4)c(Cl)c3)c2cc1C(N)=O [LENVATINIB]
Outline: as §1

[2] = compound: COc1ccc(-c2cc3c(C)nc(N)nc3n([C@H]3CC[C@H](OCCO)CC3)c2=O)cn1
Outline: as §1

[3] = compound: C[C@@H]1CN(CC(=O)Nc2ccc3c(c2)Cc2cccc(-c4cc(=O)cc(N5CCOCC5)o4)c2S3)C[C@H](C)O1
Outline: as §1

[4] = compound: C[C@H](CN(C)C)Oc1nc(Nc2cc3cccc(Cl)c3cn2)cnc1C#N
Outline: as §1

IMATINIB = compound: Cc1ccc(NC(=O)c2ccc(CN3CCN(C)CC3)cc2)cc1Nc1nccc(-c2cccnc2)n1 [IMATINIB]
Outline: as §1

NILOTINIB = compound: Cc1cn(-c2cc(NC(=O)c3ccc(C)c(Nc4nccc(-c5cccnc5)n4)c3)cc(C(F)(F)F)c2)cn1 [NILOTINIB]
Outline: as §1

BEZ-235 = compound: Cn1c(=O)n(-c2ccc(C(C)(C)C#N)cc2)c2c3cc(-c4cnc5ccccc5c4)ccc3ncc21 [BEZ-235]
Outline: as §1

BMN-673 = compound: Cn1ncnc1[C@H]1c2n[nH]c(=O)c3cc(F)cc(c23)N[C@@H]1c1ccc(F)cc1 [BMN-673]
Outline: as §1

VORINOSTAT = compound: O=C(CCCCCCC(=O)Nc1ccccc1)NO [VORINOSTAT]
Outline: as §1

Test System	area under dose-response curve [1]	area under dose-response curve (LENVATINIB)	area under dose-response curve [2]	area under dose-response curve [3]	area under dose-response curve [4]	area under dose-response curve (IMATINIB)	area under dose-response curve (NILOTINIB)	area under dose-response curve (BEZ-235)	area under dose-response curve (BMN-673)	area under dose-response curve (VORINOSTAT)
HOS BONE	3.27	3.38	2.46	3.29	3.05	3.43	3.43	2.52	3	3.28
HSSYII SYNOVIAL	3.08	2.64	1.93	3	2.56	3.24	3.09	2.12	1.15	2.82
HT1080 SOFT TISSUE	3.37	3.31	2.54	3.27	3.08	3.5	3.28	2.35	1.71	3.01
HUO3N1 BONE	3.26	3.05	2.24	3.28	3.12	3.24	3.34	2.58	2.59	3.25
JIMT1 BREAST	3.34	3.41	2.47	3.11	2.3	3.41	3.15	2.38	2.39	3.11
JURKAT HAEMATOPOIETIC AND LYMPHOID TISSUE	3.28	3.38	2.42	3.48	2.99	3.38	3.46	2.43	2.15	3.06
LM7 BONE	3.23	3.27	2.32	3.09	3.17	3.59	3.1	2.77	1.78	3.26
LNCAP PROSTATE	2.98	3.21	1.49	4.03	2.72	3.3	3.62	1.95	1.43	2.63
MCF7 BREAST	2.85	3.12	1.93	3.09	2.75	3.28	3.12	2.35	2.58	2.74
MDAMB231 BREAST	3.23	3.24	2.27	3.03	3.05	3.24	2.86	2.28	2.49	3.11
MDAMB361 BREAST	3.05	2.97	2.3	2.33	2.21	2.84	2.19	2.44	2.66	2.51
MDAMB436 BREAST	3.2	3.2	2.03	2.84	2.74	3.32	2.98	2.23	1.5	2.84
MDAMB453 BREAST	3.61	3.12	2.17	3.16	3.06	3.62	3.15	2.25	2.58	3.13
MG63 BONE	3.27	2.98	2.06	3.46	3.49	3.51	3.81	2.27	2.31	3.43
MHM BONE	3.29	3.4	2.79	3.5	3.43	3.51	3.6	2.85	3.2	3.28
OS25HAL BONE	3.27	3.19	2.12	3.38	3.06	3.47	3.17	2.66	2.71	3.21
OSHN BONE	3.42	3.63	2.99	3.42	3.08	3.71	3.28	3.19	2.4	3.47
SCC36 HEADNECK	3.23	3.67	2.62	3.05	3	3.55	3	2.98	2.52	3.13
SIHA CERVIX	3.53	3.63	2.34	3.5	3.45	3.68	3.47	2.36	2.87	3.58
SYO1 SYNOVIAL	3.07	2.56	1.95	3.18	2.54	3.02	2.99	2.23	0.997	3.02
T47D BREAST	3.46	3.63	2.22	3.37	3.29	3.66	3.49	2.71	2.5	3.15
U2OS BONE	3.38	3.24	2.54	3.54	2.9	3.59	3.59	2.68	2.8	3.23
VP229 BREAST	3.66	4.16	2.08	3.29	3.45	4.06	3.75	2.64	3.22	3.08
